How the values were obtained:
[1] = molecular target: human recombinant BACE2 (Homo sapiens (Human), UniProt Q9Y5Z0); experiment: In vitro enzymatic BACE2 FRET assay; format: biochemical; settings: read-out: IC50 IP (μM) BACE2 enzyme
Procedure, shortened: (§1)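 Fluorescence from cleavage of a quenched peptide spanning the BACE site (50 nM) was read at 488 nm excitation, 590 nm emission. Purified enzyme (Ni-NTA) and compound reacted for one hour before a Tris stop shifted pH to neutral.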

[2] = molecular target: Recombinant Cat D (Homo sapiens (Human), UniProt P07339); experiment: In vitro enzymatic Cathepsin D (Cat D) FRET assay; format: biochemical; settings: read-out: IC50 IP (μM) CatD
Procedure, shortened: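 Human Cat D expressed in CHO cells was incubated for one hour in 0.05 M citrate pH 3.5, 5 mM CHAPS, 10% DMSO final, with 20 nM quenched FRET peptide substrate. Reactions were stopped with Tris buffer raising pH to neutrality. Cleavage was read as fluorescence at excitation 500 nm, emission 580 nm.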

[3] = molecular target: human recombinant BACE1 (Homo sapiens (Human), UniProt P56817); experiment: In vitro enzymatic BACE1 FRET assay; format: biochemical; settings: read-out: IC50 IP (μM) BACE1 enzyme
Procedure, shortened: as §1

[4] = system: Aβ40 in conditioned medium of cells stably expressing Amyloid Precursor Protein (APP); experiment: In vitro BACE-1 cell-based assay (Aβ40 sandwich ELISA); settings: read-out: IC50 IP (μM) BACE1 cell
Procedure, shortened: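 Aβ40 in supernatants measured by time-resolved fluorescence sandwich ELISA, with pAb40 as capture and biotin-6E10 as detector antibody, each incubated at 4 °C.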

human recombinant BACE2, sequence (Q9Y5Z0 63-518): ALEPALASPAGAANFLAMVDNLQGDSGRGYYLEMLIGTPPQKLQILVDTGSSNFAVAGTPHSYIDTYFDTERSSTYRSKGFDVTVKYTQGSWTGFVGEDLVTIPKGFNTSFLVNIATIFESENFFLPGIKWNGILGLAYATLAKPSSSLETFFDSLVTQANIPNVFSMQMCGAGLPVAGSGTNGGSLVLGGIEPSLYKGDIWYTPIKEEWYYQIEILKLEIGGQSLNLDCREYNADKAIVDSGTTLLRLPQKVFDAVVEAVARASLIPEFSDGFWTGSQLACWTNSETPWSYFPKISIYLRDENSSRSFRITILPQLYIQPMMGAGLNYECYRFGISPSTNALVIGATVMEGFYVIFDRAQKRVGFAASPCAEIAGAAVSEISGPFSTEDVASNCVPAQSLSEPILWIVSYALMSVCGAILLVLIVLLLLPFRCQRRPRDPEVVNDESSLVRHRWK
human recombinant BACE1, sequence (P56817 46-501): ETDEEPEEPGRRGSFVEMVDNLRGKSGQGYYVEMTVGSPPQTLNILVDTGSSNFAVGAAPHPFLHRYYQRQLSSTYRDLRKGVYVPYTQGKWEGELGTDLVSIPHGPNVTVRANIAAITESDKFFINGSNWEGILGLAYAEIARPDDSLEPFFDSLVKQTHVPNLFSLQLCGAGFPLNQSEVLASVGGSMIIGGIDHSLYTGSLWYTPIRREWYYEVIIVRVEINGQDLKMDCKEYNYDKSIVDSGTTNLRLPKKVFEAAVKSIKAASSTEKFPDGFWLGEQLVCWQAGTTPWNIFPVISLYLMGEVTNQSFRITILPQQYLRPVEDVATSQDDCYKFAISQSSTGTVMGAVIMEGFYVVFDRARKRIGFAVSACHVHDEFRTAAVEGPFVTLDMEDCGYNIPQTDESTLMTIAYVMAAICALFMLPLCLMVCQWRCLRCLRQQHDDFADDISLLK
Recombinant Cat D, sequence (P07339 65-412): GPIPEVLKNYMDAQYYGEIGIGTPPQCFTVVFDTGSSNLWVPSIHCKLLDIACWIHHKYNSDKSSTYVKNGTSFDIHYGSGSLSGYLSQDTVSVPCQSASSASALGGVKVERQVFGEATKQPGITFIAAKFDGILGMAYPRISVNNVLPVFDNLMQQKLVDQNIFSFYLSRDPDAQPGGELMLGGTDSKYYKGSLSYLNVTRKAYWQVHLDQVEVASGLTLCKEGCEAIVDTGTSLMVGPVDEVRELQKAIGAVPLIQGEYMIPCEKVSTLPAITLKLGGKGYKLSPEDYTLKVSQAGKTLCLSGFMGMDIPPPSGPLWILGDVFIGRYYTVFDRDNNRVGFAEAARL

SMILES	IC50 [1]	IC50 [2]	IC50 [3]	IC50 [4]
CN(C)C(=O)[C@]12C[C@H]1[C@@](C)(c1cc(NC(=O)c3cnc(OCC(F)(F)F)cn3)cc(F)c1F)N=C(N)S2 [Example 926, (1S,5S,6S)-3-amino-5-(2,3-difluoro-5-(((5-(2,2,2-trifluoroethoxy)-2-pyrazinyl)carbonyl)amino)phenyl)-N,N,5-trimethyl-2-thia-4-azabicyclo[4.1.0]hept-3-ene-1-carboxamide]	0.00491 µM	695 µM	0.0021 µM	0.00113 µM
C#CCOc1cnc(C(=O)Nc2ccc(F)c([C@@]3(C)N=C(N)S[C@@]4(C#N)C[C@H]43)c2)cn1 [Example 927, N-(3-((1S,5S,6S)-3-amino-1-cyano-5-methyl-2-thia-4-azabicyclo[4.1.0]hept-3-en-5-yl)-4-fluorophenyl)-5-(2-propyn-1-yloxy)-2-pyrazinecarboxamide]	0.00448 µM	126 µM	0.000266 µM	0.000667 µM
C#CCOc1cnc2c(Nc3ccc(F)c([C@@]4(C)N=C(N)S[C@@]5(C#N)C[C@H]54)c3)ncnc2c1 [Example 928, (1S,5S,6S)-3-amino-5-(2-fluoro-5-((7-(2-propyn-1-yloxy)pyrido[3,2-d]pyrimidin-4-yl)amino)phenyl)-5-methyl-2-thia-4-azabicyclo[4.1.0]hept-3-ene-1-carbonitrile]	0.0129 µM	439 µM	0.00141 µM	0.00723 µM
C[C@]1(c2cc(NC(=O)c3ccc(Cl)cn3)ccc2F)N=C(N)S[C@@]2(C#N)C[C@H]21 [Example 929, N-(3-((1S,5S,6S)-3-amino-1-cyano-5-methyl-2-thia-4-azabicyclo[4.1.0]hept-3-en-5-yl)-4-fluorophenyl)-5-chloro 2-pyridinecarboxamide]	< 0.00203 µM	> 400 µM	0.000567 µM	0.00363 µM
C#CCOc1cnc2c(Nc3cc(F)c(F)c([C@@]4(C)N=C(N)S[C@@]5(C(=O)N6CCCC6)C[C@H]54)c3)ncnc2c1 [Example 933, N-(3-((1S,5S,6S)-3-amino-5-methyl-1-(1-pyrrolidinylcarbonyl)-2-thia-4-azabicyclo[4.1.0]hept-3-en-5-yl)-4,5-difluorophenyl)-7-(2-propyn-1-yloxy)pyrido[3,2-d]pyrimidin-4-amine]	0.00491 µM	315 µM	0.000526 µM	0.000709 µM
C#CCOc1cnc(C(=O)Nc2cc(F)c(F)c([C@@]3(C)N=C(N)S[C@@]4(C(=O)N5CCCC5)C[C@H]43)c2)cn1 [Example 934, N-(3-((1S,5S,6S)-3-amino-5-methyl-1-(1-pyrrolidinylcarbonyl)-2-thia-4-azabicyclo[4.1.0]hept-3-en-5-yl)-4,5-difluorophenyl)-5-(2-propyn-1-yloxy)-2-pyrazinecarboxamide]	< 0.00203 µM	12.9 µM	0.000393 µM	0.000378 µM
C[C@]1(c2cc(NC(=O)c3ccc(Cl)cn3)cc(F)c2F)N=C(N)S[C@@]2(C(=O)N3CCCC3)C[C@H]21 [Example 935, N-(3-((1S,5S,6S)-3-amino-5-methyl-1-(1-pyrrolidinylcarbonyl)-2-thia-4-azabicyclo[4.1.0]hept-3-en-5-yl)-4,5-difluorophenyl)-5-chloro-2-pyridinecarboxamide]	< 0.00203 µM	254 µM	0.000498 µM	0.000889 µM
C[C@]1(c2cc(Nc3ncnc4cc(OCc5ncco5)cnc34)cc(F)c2F)N=C(N)S[C@@]2(C(=O)N3CCCC3)C[C@H]21 [Example 936, N-(3-((1S,5S,6S)-3-amino-5-methyl-1-(1-pyrrolidinylcarbonyl)-2-thia-4-azabicyclo[4.1.0]hept-3-en-5-yl)-4,5-difluorophenyl)-7-(1,3-oxazol-2-ylmethoxy)pyrido[3,2-d]pyrimidin-4-amine]	0.0182 µM	115 µM	0.00385 µM	0.000847 µM
C#C[C@H](C)Oc1cnc2c(Nc3cc(F)c(F)c([C@@]4(C)N=C(N)S[C@@]5(C(=O)N6CCCC6)C[C@H]54)c3)nccc2n1 [Example 937, N-(3-((1S,5S,6S)-3-amino-5-methyl-1-(1-pyrrolidinylcarbonyl)-2-thia-4-azabicyclo[4.1.0]hept-3-en-5-yl)-4,5-difluorophenyl)-2-(((1S)-1-methyl-2-propyn-1-yl)oxy)pyrido[3,4-b]pyrazin-5-amine]	0.0102 µM	872 µM	0.00207 µM	0.00624 µM
C[C@H](Oc1cnc2c(Nc3cc(F)c(F)c([C@@]4(C)N=C(N)S[C@@]5(C(=O)N6CCCC6)C[C@H]54)c3)nccc2n1)c1ncco1 [Example 938, N-(3-((1S,5S,6S)-3-amino-5-methyl-1-(1-pyrrolidinylcarbonyl)-2-thia-4-azabicyclo[4.1.0]hept-3-en-5-yl)-4,5-difluorophenyl)-2-((1S)-1-(1,3-oxazol-2-yl)ethoxy)pyrido[3,4-b]pyrazin-5-amine]	0.0633 µM	162 µM	0.00129 µM	0.00508 µM
C[C@H](Oc1cnc2c(Nc3cc(F)c(F)c([C@@]4(C)N=C(N)S[C@@]5(C#N)C[C@H]54)c3)nccc2n1)c1ncco1 [Example 939, (1S,5S,6S)-3-amino-5-(2,3-difluoro-5-((2-((1S)-1-(1,3-oxazol-2-yl)ethoxy)pyrido[3,4-b]pyrazin-5-yl)amino)phenyl)-5-methyl-2-thia-4-azabicyclo[4.1.0]hept-3-ene-1-carbonitrile]	0.127 µM	209 µM	0.000867 µM	0.165 µM
C[C@]1(c2cc(NC(=O)c3cnc(OCC(F)(F)F)cn3)cc(F)c2F)N=C(N)S[C@@]2(C#N)C[C@H]21 [Example 940, N-(3-((1S,5S,6S)-3-amino-1-cyano-5-methyl-2-thia-4-azabicyclo[4.1.0]hept-3-en-5-yl)-4,5-difluorophenyl)-5-(2,2,2-trifluoroethoxy)-2-pyrazinecarboxamide]	0.0224 µM	1390 µM	0.004 µM	0.015 µM
C#CCOc1cnc2c(Nc3ccc(F)c([C@@]4(CF)N=C(N)S[C@@]5(COC)C[C@H]54)c3)ncnc2c1 [Example 942, N-(3-((1S,5S,6S)-3-amino-5-(fluoromethyl)-1-(methoxymethyl)-2-thia-4-azabicyclo[4.1.0]hept-3-en-5-yl)-4-fluorophenyl)-7-(2-propyn-1-yloxy)pyrido[3,2-d]pyrimidin-4-amine]	0.0417 µM	1090 µM	0.00314 µM	0.00518 µM
C#CCOc1cnc2c(Nc3cc(F)c(F)c([C@@]4(C)N=C(N)S[C@@]5(COC)C[C@H]54)c3)ncnc2c1 [Example 943, N-(3-((1S,5S,6S)-3-amino-1-(methoxymethyl)-5-methyl-2-thia-4-azabicyclo[4.1.0]hept-3-en-5-yl)-4,5-difluorophenyl)-7-(2-propyn-1-yloxy)pyrido[3,2-d]pyrimidin-4-amine]	0.101 µM	571 µM	0.00223 µM	0.00593 µM
C#CCOc1cnc2c(Nc3cnc(F)c([C@@]4(C)N=C(N)S[C@@]5(CF)C[C@H]54)c3)ncnc2c1 [Example 944, N-(5-((1S,5S,6S)-3-amino-1-(fluoromethyl)-5-methyl-2-thia-4-azabicyclo[4.1.0]hept-3-en-5-yl)-6-fluoro-3-pyridinyl)-7-(2-propyn-1-yloxy)pyrido[3,2-d]pyrimidin-4-amine]	0.0696 µM	> 400 µM	0.00102 µM	0.00216 µM
